According to patent US12187721B2, “Protein tyrosine phosphatase inhibitors” (Array BioPharma Inc., priority 2018, dated 2025):

target: T1, full-length SHP2 (His6-tagged SHP2(2-527)) (Homo sapiens, UniProt Q06124); assay: SHP2 Enzymatic Assay (fluorescence intensity kinetic assay, DiFMUP hydrolysis); format: biochemical
T1 construct: His6-tagged SHP2(2-527); His6; made in house; host or cells: E. coli
Experimental: A fluorescence intensity kinetic assay was configured for full-length SHP2 that monitors the amount of 6,8-difluoro-7-hydroxy-4-methylcoumarin (“DiFMU”) formed upon hydrolysis of 6,8-difluoro-4-methylumbelliferyl phosphate (“DiFMUP”) by SHP2. Assay mixtures consisted of 25 mM K^+HEPES, pH 7.4, 0.01% Triton X-100, 1 mM DTT, 50 mM KCl, 100 μg/mL bovine γ-globulin, 50 μM DiFMUP, 1 μM SHP2 activating peptide (LN(pY)IDLDLV(dPEG8)LST(pY)ASINFQK-amide), 1 nM full-length SHP2 (His6-tagged SHP2(2-527), recombinantly expressed in E. coli and purified in-house) and 2% dimethylsulfoxide (“DMSO”) (from compound). […] The assay was run in 384-well, polystyrene, low-volume, non-treated, black microtiter plates (Costar 4511) in a final volume of 20 μL. Low control wells lacked enzyme. The assays were initiated by the addition of a mixture of SHP2 and the activating peptide, and following a 15 second mix on an orbital shaker, were read in kinetic mode for 15 minutes (30 seconds/cycle) at ambient temperature on a PerkinElmer EnVision microplate reader (λEx=355 nm, λEm=460 nm). Initial velocities (slopes of the tangents at t=0) were estimated from exponential fits to the slightly nonlinear progress curves and then were converted to percent of control (“POC”) using the following equation:
[formula] • Where: Xmax Average Uninhibited Controls • Xmin Average Background A 4-parameter logistic model was the fit to the POC data for each compound. From that fit, the IC50 was estimated and is defined as the concentration of compound at which the curve crosses 50 POC.
The reported IC50 in Table 1 may be from a single assay or the mean of multiple assays.

T1 sequence (Q06124 2-527): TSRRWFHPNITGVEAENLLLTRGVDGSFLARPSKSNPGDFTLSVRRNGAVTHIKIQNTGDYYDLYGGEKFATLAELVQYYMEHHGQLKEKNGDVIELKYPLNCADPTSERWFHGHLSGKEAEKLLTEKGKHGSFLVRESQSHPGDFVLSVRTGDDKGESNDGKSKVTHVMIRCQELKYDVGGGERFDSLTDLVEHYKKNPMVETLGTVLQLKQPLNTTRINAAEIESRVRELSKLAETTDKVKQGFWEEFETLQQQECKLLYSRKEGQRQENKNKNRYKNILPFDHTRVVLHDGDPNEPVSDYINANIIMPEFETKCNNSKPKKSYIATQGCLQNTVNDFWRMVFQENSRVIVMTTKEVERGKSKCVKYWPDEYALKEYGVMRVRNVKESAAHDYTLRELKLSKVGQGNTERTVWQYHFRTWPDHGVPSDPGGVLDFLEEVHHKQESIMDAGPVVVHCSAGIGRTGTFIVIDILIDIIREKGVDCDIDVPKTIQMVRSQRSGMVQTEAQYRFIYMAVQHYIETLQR

| SMILES | IC50 |
| --- | --- |
| NCC1CN(c2cnc3nc(-c4ccccc4)ccc3n2)CCO1 (stereo not drawn) [Example 65, (4-(6-phenylpyrido[2,3-b]pyrazin-2-yl)morpholin-2-yl)methanamine] | 5760 nM |
| C[C@@H]1OCC2(CCN(c3cnc4nc(-c5ccccc5)ccc4n3)CC2)[C@@H]1N [Example 66, (3S,4S)-3-methyl-8-(6-phenylpyrido[2,3-b]pyrazin-2-yl)-2-oxa-8-azaspiro[4.5]decan-4-amine] | 2750 nM |
| C[C@@H]1OCC2(CCN(c3cnc4nc(Sc5cc(N)nc(Cl)c5Cl)ccc4n3)CC2)[C@@H]1N [Example 68, (3S,4S)-8-(6-((6-amino-2,3-dichloropyridin-4-yl)thio)pyrido[2,3-b]pyrazin-2-yl)-3-methyl-2-oxa-8-azaspiro[4,5]decan-4-amine] | 69 nM |
| C[C@@H]1OCC2(CCN(c3cnc4nc(N5CCCc6ccccc65)ccc4n3)CC2)[C@@H]1N [Example 69, (3S,4S)-8-(6-(3,4-dihydroquinolin-1(2H)-yl)pyrido[2,3-b]pyrazin-2-yl)-3-methyl-2-oxa-8-azaspiro[4,5]decan-4-amine] | 79 nM |
| C[C@@H]1OCC2(CCN(c3cnc4nc(N5CCNc6ccccc65)ccc4n3)CC2)[C@@H]1N [Example 70, (3S,4S)-8-(6-(3,4-dihydroquinoxalin-1(2H)-yl)pyrido[2,3-b]pyrazin-2-yl)-3-methyl-2-oxa-8-azaspiro[4.5]decan-4-amine] | 5970 nM |
| Cc1c(Sc2ccc3nc(N4CCC5(CC4)CO[C@@H](C)[C@H]5N)cnc3n2)ccnc1N [Example 72, (3S,4S)-8-(6-((2-amino-3-methylpyridin-4-yl)thio)pyrido[2,3-b]pyrazin-2-yl)-3-methyl-2-oxa-8-azaspiro[4,5]decan-4-amine] | 149 nM |
| CC1(N)CCCN(c2cnc3nc(Sc4ccnc(N)c4Cl)ccc3n2)CC1 (stereo not drawn) [Example 73, 1-(6-((2-amino-3-chloropyridin-4-yl)thio)pyrido[2,3-b]pyrazin-2-yl)-4-methylazepan-4-amine] | 35 nM |
| C[C@@H]1OCC2(CCN(c3cnc4nc(Sc5ccnc(N6CCS(=O)(=O)CC6)c5Cl)ccc4n3)CC2)[C@@H]1N [Example 77, 4-(4-((2-((3S,4S)-4-amino-3-methyl-2-oxa-8-azaspiro[4.5]decan-8-yl)pyrido[2,3-b]pyrazin-6-yl)thio)-3-chloropyridin-2-yl)thiomorpholine 1,1-dioxide] | 344 nM |
| C[C@@H]1OCC2(CCN(c3cnc4nc(Sc5ccnc(N6CCOCC6)c5Cl)ccc4n3)CC2)[C@@H]1N [Example 79, (3S,4S)-8-(6-((3-chloro-2-morpholinopyridin-4-yl)thio)pyrido[2,3-b]pyrazin-2-yl)-3-methyl-2-oxa-8-azaspiro[4,5]decan-4-amine] | 425 nM |
| CC(=O)N1CCN(c2nccc(Sc3ccc4nc(N5CCC6(CC5)CO[C@@H](C)[C@H]6N)cnc4n3)c2Cl)CC1 [Example 80, 1-(4-(4-((2-((3S,4S)-4-amino-3-methyl-2-oxa-8-azaspiro[4.5]decan-8-yl)pyrido[2,3-b]pyrazin-6-yl)thio)-3-chloropyridin-2-yl)piperazin-1-yl)ethan-1-one] | 743 nM |
| Nc1nccc(Sc2ccc3nc(N4CCC(N)CC4)cnc3n2)c1Cl [Example 81, 4-((2-(4-aminopiperidin-1-yl)pyrido[2,3-b]pyrazin-6-yl)thio)-3-chloropyridin-2-amine] | 72 nM |
| Nc1nccc(Sc2ccc3nc(N4CC[C@@H](N)[C@H](O)C4)cnc3n2)c1Cl [Example 82, (3R,4R)-4-amino-1-(6-((2-amino-3-chloropyridin-4-yl)thio)pyrido[2,3-b]pyrazin-2-yl)piperidin-3-ol] | 65 nM |
| Nc1nccc(Sc2ccc3nc(N4CCC5(CCCC5N)C4)cnc3n2)c1Cl (stereo not drawn) [Example 83, 2-(6-((2-amino-3-chloropyridin-4-yl)thio)pyrido[2,3-b]pyrazin-2-yl)-2-azaspiro[4.4]nonan-6-amine] | 173 nM |
| Nc1nccc(Sc2ccc3nc(N4CC[C@@H](N)[C@@H](O)C4)cnc3n2)c1Cl [Example 84, (3S,4R)-4-amino-1-(6-((2-amino-3-chloropyridin-4-yl)thio)pyrido[2,3-b]pyrazin-2-yl)piperidin-3-ol] | 102 nM |
| NCC1CN(c2cnc3nc(Sc4ccnc(N)c4Cl)ccc3n2)C1 [Example 85, 4-((2-(3-(aminomethyl)azetidin-1-yl)pyrido[2,3-b]pyrazin-6-yl)thio)-3-chloropyridin-2-amine] | 481 nM |
| NCC1(CO)CCN(c2cnc3nc(Sc4ccnc(N)c4Cl)ccc3n2)CC1 [Example 86, (1-(6-((2-amino-3-chloropyridin-4-yl)thio)pyrido[2,3-b]pyrazin-2-yl)-4-(aminomethyl)piperidin-4-yl)methanol] | 53 nM |
| C[C@@H]1OCC2(CCN(c3cnc4nc(Sc5ccnc(N6CC[C@H](CO)C6)c5Cl)ccc4n3)CC2)[C@@H]1N [Example 87, ((S)-1-(4-((2-((3S,4S)-4-amino-3-methyl-2-oxa-8-azaspiro[4.5]decan-8-yl)pyrido[2,3-b]pyrazin-6-yl)thio)-3-chloropyridin-2-yl)pyrrolidin-3-yl)methanol] | 126 nM |
| C[C@@H]1OCC2(CCN(c3cnc4nc(Sc5ccnc(N6CC[C@H](O)C6)c5Cl)ccc4n3)CC2)[C@@H]1N [Example 88, (S)-1-(4-((2-((3S,4S)-4-amino-3-methyl-2-oxa-8-azaspiro[4.5]decan-8-yl)pyrido[2,3-b]pyrazin-6-yl)thio)-3-chloropyridin-2-yl)pyrrolidin-3-ol] | 105 nM |
| C[C@@H]1OCC2(CCN(c3cnc4nc(Sc5ccnc(N6CCC(O)C6)c5Cl)ccc4n3)CC2)[C@@H]1N (stereo partly drawn) [Example 89, 1-(4-((2-((3S,4S)-4-amino-3-methyl-2-oxa-8-azaspiro[4.5]decan-8-yl)pyrido[2,3-b]pyrazin-6-yl)thio)-3-chloropyridin-2-yl)pyrrolidin-3-ol] | 79 nM |
| C[C@@H]1OCC2(CCN(c3cnc4nc(Sc5ccnc(CO)c5Cl)ccc4n3)CC2)[C@@H]1N [Example 90, (4-((2-((3S,4S)-4-amino-3-methyl-2-oxa-8-azaspiro[4.5]decan-8-yl)pyrido[2,3-b]pyrazin-6-yl)thio)-3-chloropyridin-2-yl)methanol] | 183 nM |
| CN(C)C1C[C@@H]2CC[C@@H](C1)N2c1cnc2nc(Sc3ccnc(N)c3Cl)ccc2n1 (stereo partly drawn) [Example 92, (1R,3s,5S)-8-(6-((2-amino-3-chloropyridin-4-yl)thio)pyrido[2,3-b]pyrazin-2-yl)-N,N-dimethyl-8-azabicyclo[3.2.1]octan-3-amine] | 66 nM |
| CNC1C[C@@H]2CC[C@@H](C1)N2c1cnc2nc(Sc3ccnc(N)c3Cl)ccc2n1 (stereo partly drawn) [Example 93, (1S,3s,5S)-8-(6-((2-amino-3-chloropyridin-4-yl)thio)pyrido[2,3-b]pyrazin-2-yl)-N-methyl-8-azabicyclo[3.2.1]octan-3-amine] | 49 nM |
| Cc1nccc(Sc2ccc3nc(N4CCC(C)(N)CC4)cnc3n2)c1Cl [Example 94, 1-(6-((3-chloro-2-methylpyridin-4-yl)thio)pyrido[2,3-b]pyrazin-2-yl)-4-methylpiperidin-4-amine] | 49 nM |
| CC1(N)CCN(c2cnc3nc(Sc4cccnc4N)ccc3n2)CC1 [Example 95, 3-((2-(4-amino-4-methylpiperidin-1-yl)pyrido[2,3-b]pyrazin-6-yl)thio)pyridin-2-amine] | 4720 nM |
| Cc1nc(Cl)ccc1Sc1ccc2nc(N3CCC(C)(N)CC3)cnc2n1 [Example 96, 1-(6-((6-chloro-2-methylpyridin-3-yl)thio)pyrido[2,3-b]pyrazin-2-yl)-4-methylpiperidin-4-amine] | 503 nM |
| CC1(N)CCN(c2cnc3nc(Sc4ccc(N)nc4Cl)ccc3n2)CC1 [Example 97, 5-((2-(4-amino-4-methylpiperidin-1-yl)pyrido[2,3-b]pyrazin-6-yl)thio)-6-chloropyridin-2-amine] | 176 nM |
| Cc1ccc(Sc2ccc3nc(N4CCC(C)(N)CC4)cnc3n2)c(Cl)n1 [Example 98, 1-(6-((2-chloro-6-methylpyridin-3-yl)thio)pyrido[2,3-b]pyrazin-2-yl)-4-methylpiperidin-4-amine] | 169 nM |
| Nc1nccc(Sc2ccc3nc(N4CC5CCCC(N)C5C4)cnc3n2)c1Cl (stereo not drawn) [Example 99, 2-(6-((2-amino-3-chloropyridin-4-yl)thio)pyrido[2,3-b]pyrazin-2-yl)octahydro-1H-isoindol-4-amine] | 157 nM |
| Nc1nccc(Sc2ccc3nc(N4CC5CCC(N)C5C4)cnc3n2)c1Cl (stereo not drawn) [Example 100, 2-(6-((2-amino-3-chloropyridin-4-yl)thio)pyrido[2,3-b]pyrazin-2-yl)octahydrocyclopenta[c]pyrrol-4-amine] | 121 nM |
| NCC1CC2CCCC(C1)N2c1cnc2nc(Sc3ccnc(N)c3Cl)ccc2n1 (stereo not drawn) [Example 101, 4-((2-(3-(aminomethyl)-9-azabicyclo[3.3.1]nonan-9-yl)pyrido[2,3-b]pyrazin-6-yl)thio)-3-chloropyridin-2-amine] | 56 nM |
